The values that follow come from patent publication US20160304573A1, “FIBROMODULIN PEPTIDE” (The Regents of the University of California, priority 2010, published 2016).

Bounds are passed on as bounds.

For one test, the target named is T1, TGF-β3 (Homo sapiens, UniProt P10600).
T1 sequence (P10600 301-412 limits assumed): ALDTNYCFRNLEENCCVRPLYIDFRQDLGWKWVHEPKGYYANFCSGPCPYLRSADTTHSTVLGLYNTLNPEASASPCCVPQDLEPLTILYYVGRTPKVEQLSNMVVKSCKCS
Nature of the test: TGF-β3 binding to biotinylated FMOD/FMOD peptides on avidin resin; non-bound TGF-β read by Mv1Lu growth inhibition (MTT). The following applies: ratios 1:1, 10:1, 100:1, 1000:1 to TGF-β; FIG. 15. The protocol: (§1) FMOD (whole protein) (SEQ ID NO:1), FMOD peptides and control protein BSA were biotinylated. While, the biotinylated proteins and peptides were bound to commercial available Piece Monomeric Avidin UltraLink Resin (Piece). The amounts of each test peptides/proteins are 1:1, 10:1, 100:1 and 1000:1 to TGF-βs, respectively. After washing out the non-bound residues, appropriate amount TGF-βs (based on the primary test assay) were added to the resin at 4° C. After overnight binding, non-bound TGF-βs were collected, followed by filter sterilization. Then, the TGF-βs residue were diluted 100 times in DEME-0.5% FBS to ensure the concentration was located in the linear region of TGF-βs on Mv1Lu proliferate inhibition.
(§2) Diluted TGF-βs was added to overnight serum-starved Mv1Lu, and fresh TGF-βs media were added for another 24 hour before MTT assay. Samples with no TGF-βs added were employed as controls.

Another test concerns the target T2, TGF-β2 (Homo sapiens, UniProt P61812).
T2 sequence (P61812 303-414 limits assumed): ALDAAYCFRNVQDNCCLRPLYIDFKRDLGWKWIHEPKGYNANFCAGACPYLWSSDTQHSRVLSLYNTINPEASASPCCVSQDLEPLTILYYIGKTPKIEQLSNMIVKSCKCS
Nature of the test: TGF-β2 binding to biotinylated FMOD/FMOD peptides on avidin resin; non-bound TGF-β read by Mv1Lu growth inhibition (MTT). The following applies: ratios 1:1, 10:1, 100:1, 1000:1 to TGF-β; FIG. 14. As to the method: as §1, §2

Test [1] has as its target T3, TGF-β1 (Homo sapiens, UniProt P01137). Nature of the test: TGF-β1 binding to biotinylated FMOD/FMOD peptides on avidin resin; non-bound TGF-β read by Mv1Lu growth inhibition (MTT). The following applies: ratios 1:1, 10:1, 100:1, 1000:1 to TGF-β; overnight 4° C.; FIG. 13. The protocol: as §1, §2
Test [2] deals with Rat-2 cells. As to the kind of experiment: H&E morphology of Rat-2 cells. In kind it is cell-based. As to the method:
Exemplary tests were performed to better delineate cell morphology.

Test [3] has as its system connective tissue growth factor (CTGF) expression. As to the kind of experiment: CTGF expression and cell aggregation in Rat-2 cells, confocal staining. In kind it is cell-based. As to the method: Results of exemplary tests on each of FMOD and FMOD-P, alone or in combination with TGF-β on CTGF expression are shown in FIGS. 28A-28D. In these tests, 4,000 cells/well passage 18 Rat-2 cells were seeded in 8-well chamber slices in DMEM medium with 10% FBS. After 6 h adhesion, fresh DMEM medium with 0.5% FBS was employed for overnight serum starvation and then treatment media added. Treatment media were changed after 24 h. Cells were fixed and staining at 48 h. Photos were captured at 630× magnifications using a confocal microscope. In these figures, the cells were stained for CTGF (connective tissue growth factor, a factor involved in cell proliferation, migration and matrix production) or DAPI (4′,6-diamidino-2-phenylindole a fluorescent stain that binds strongly to DNA-used for nuclear staining). Merged images showing both CTGF and DAPI staining are also shown.

For test [4], the system named is α-smooth muscle actin (α-SMA) expression. As to the kind of experiment: α-SMA expression staining. In kind it is cell-based. As to conditions: mono-treatment (200 nM FMOD or 100 pM TGF-β1); FIGS. 25B, 25C. As to the method:
Exemplary tests on effects of FMOD and TGF-β or FMOD peptides and TGF-β on α-SMA expression were performed and shown in FIGS. 25A-25D. Expression levels of α-SMA, which is a marker for the transition of fibroblasts to myofibroblasts, were measured and presented in staining in these figures.

Test [5] addresses T3, TGF-β1. Nature of the test: ELISA analysis of binding with TGF-β1. As to conditions: BSA as negative control; FIG. 3. The source says: Bovine serum albumin (BSA) was used as negative control.
SUMO-CAT from the recombinant bacteria harboring control plasmid pET_SUMO/CAT was used as negative control. To the knowledge of inventors, the TGF-binding sites within FMOD have not been reported.
For orientation: ELISA stands for enzyme-linked immunosorbent assay.

In test [6] the test system is Rat-2 cells. As to the kind of experiment: Rat-2 cell migration by scratching method. In kind it is cell-based. The following applies: alone (200 nM FMOD or 100 pM TGF-β), 24 hours. The protocol:
1×10^6 cell/well Rat-2 cells were seeded in 6-well plated with 3 ml DMEM-10% FBS. After 6 hours for adhesion, fresh DMEM-0.5% FBS medium was changed for serum-starving overnight. After pre-warmed DMEM rinsing, four wounds (each 1 mm wide; two horizontal and two vertical) were scratched employing a 1-ml tip for each treatment group. Cells were rinsed by DMEM for three times, followed by incubation with treatment medium [DMEM-0.5 FBS containing 100 pM (2.5 ng/ml) TGF-β1 (SEQ ID NO:64) or -β3 (SEQ ID NO:66) w/o 200 nM (11.2 μg/ml) FMOD (SEQ ID NO:1)] for 24 hours. Photos were captured at both 0-h and 24-h after the scratching. The unclosed distance was measured and quantified as an average gap (A) and migration index (B). Similar results were reproduced in four independent experiments. The scale bar in (A) equal to 100 The asterisks in (B) present P<0.05.
(§3) Similar to FMOD (whole protein), the effect of FMOD peptides and/or TGF-β on cell migration was also evaluated by scratching method (FIGS. 18C and 25D). At the same time, cell migration/invasion in Matrigel was documented at 100× magnificent after 24 hour treatment and quantitated using DAPI nuclear staining (100 rather than 200× magnification was used because one group's invasion is quite low) (see the results in FIG. 20A and DAPI pictures in FIG. 20B). Passage 18 Rat-2 cells (20,000 cells/well) were used for the test under the treatment of 100 pM TGF-β1 (SEQ ID NO:64)/133 (SEQ ID NO:66) with/without 200 nM FMOD-F07-40C in DMEM-0.5% FBS.

The target in test [7] is T4, Bovine serum albumin (BSA) (bovine, UniProt P02769 25-607).
T4 construct: also called control BSA; control protein BSA
T4 sequence (P02769 25-607 limits assumed): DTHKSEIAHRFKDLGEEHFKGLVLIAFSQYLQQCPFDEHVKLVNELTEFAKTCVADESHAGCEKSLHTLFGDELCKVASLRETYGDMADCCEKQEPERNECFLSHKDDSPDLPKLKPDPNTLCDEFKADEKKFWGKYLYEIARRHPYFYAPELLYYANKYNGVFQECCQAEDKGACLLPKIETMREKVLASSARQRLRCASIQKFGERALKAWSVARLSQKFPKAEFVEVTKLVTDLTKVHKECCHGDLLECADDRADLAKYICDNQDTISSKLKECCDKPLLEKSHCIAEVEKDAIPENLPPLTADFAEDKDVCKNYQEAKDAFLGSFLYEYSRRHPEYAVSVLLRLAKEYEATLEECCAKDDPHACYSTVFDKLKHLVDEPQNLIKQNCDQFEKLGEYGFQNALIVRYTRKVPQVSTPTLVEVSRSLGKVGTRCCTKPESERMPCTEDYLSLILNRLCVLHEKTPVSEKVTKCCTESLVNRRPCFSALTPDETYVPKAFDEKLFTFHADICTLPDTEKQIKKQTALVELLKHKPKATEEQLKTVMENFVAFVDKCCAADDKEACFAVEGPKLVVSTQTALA
Nature of the test: biotinylated protein on avidin resin, unbound TGF-β read by Mv1Lu growth inhibition (MTT). As to the method: as §1, §2

Test [8] concerns Rat-2 cells. As to the kind of experiment: Rat-2 cell migration/invasion in Matrigel, DAPI nuclear staining. In kind it is cell-based. The following applies: alone (200 nM FMOD or peptide, or 100 pM TGF-β), 24 hour treatment. As to the method:
Cell migration/invasion in Matrigel was documented at 200× magnificent after 24 hour treatment and quantitated using DAPI nuclear staining (results shown in FIG. 19A and repeat results in FIGS. 26B and 26C; DAPI pictures are shown in FIG. 19D).
as §3
Passage 18 Rat-2 cells (20,000 cells/well) were used for the test under the treatment of 100 pM TGF-β1/β3 with/without 200 nM FMOD-F06-40C in DMEM-0.5% FBS (FIG. 20C).

T3 sequence (P01137 279-390 limits assumed): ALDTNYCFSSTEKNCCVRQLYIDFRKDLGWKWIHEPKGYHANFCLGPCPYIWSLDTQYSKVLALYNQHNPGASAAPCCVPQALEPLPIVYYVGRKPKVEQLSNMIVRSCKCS

On to “Bovine serum albumin [BSA, reference compound]”, for which, on TGF-β3, the TGF-β3 binding entry was “did not bind to TGF-β3 even at high ratios”. For the same molecule, the TGF-β2 binding entry on TGF-β2 is on record as “minimal TGF-β2 binding”. The TGF-β1 binding entry on TGF-β1 [1] is recorded as “minimal TGF-β1 binding except at very high ratios”.

As for TGF-β1: TGF-β isoform, SEQ ID NO:64, in the test with Rat-2 cells [2] (100 pM TGF-β1 alone, 8-well chamber slides), the “nodule-like cell aggregations/condensations, number” value is given as “< one”. The “cell aggregation/density (H&E)” value in the test with Rat-2 cells [2] (mono-treatment (200 nM FMOD or 100 pM TGF-β1), relative to controls) is given as “slightly increased the Rat-2 cell density”. The CTGF expression result in [3] (mono-treatment (200 nM FMOD or 100 pM TGF-β1), 48 h, FIGS. 21B, 21C) was “moderate CTGF expression”. Moreover, in [3] (mono-treatment, another set of similar studies, FIG. 24), the “CTGF expression (green fluorescence)” value is reported as “increases expression of CTGF”. Further, the α-SMA staining entry in test [4] is “moderate α-SMA staining”.

B1: native extract bovine FMOD: native extract bovine FMOD, comparator in ELISA (protein)
chain: QYEEDSHWWFQFLRNQQSTYDDPYDPYPYEPYEPYPYGGEEGPAYAYGSPPQPEPRDCPQECDCPPNFPTAMYCDNRNLKYLPFVPSRMKYVYFQNNQISSIQEGVFDNATGLLWIALHGNQITSDKVGKKVFSKLRHLERLYLDHNNLTRIPSPLPRSLRELHLDHNQISRVPNNALEGLENLTALYLHHNEIQEVGSSMKGLRSLILLDLSYNHLRKVPDGLPSALEQLYLEHNNVFSVPDSYFRGSPKLLYVRLSHNSLTNNGLASNTFNSSSLLELDLSYNQLQKIPPVSTNLENLYLQGNRINEFSISSFCTVVDVMNFSKLQVLRLDGNEIKRSAMPADAPLCLRLASLIEI
For B1, the “binding with TGF-β1 in ELISA assay” value with TGF-β1 [5] is given as “able to bind with TGF-β1”.

B2: TGF-β3 (ligand)
chain: NCCVRPLYIDFRQDLGWKWVHEPKGYYANFCSGPCPYLRSADTTHSTVLGLYNTLNPEASASPCCVPQDLEPLTILYYVGRTPKVEQLSNMVVKSCKCS
Regarding B2, the “cell migration, scratch” value in the test with Rat-2 cells [6] is reported as “inhibited migration”. Besides, in test [7], the binding result is “no binding”. In addition, the “cell migration/invasion in Matrigel” value with Rat-2 cells [8] is recorded as “inhibited migration”.
